Experiment [1] deals with SL13 cells. Kind of experiment: Bulk telomere length, Southern blot, SL13 long-term culture. In kind it is cell-based, mouse. From the text:
ATM has been proposed to play different roles in signaling telomere dysfunction in human and mouse cells. Since it is not yet clear whether the damage signaling is mechanistically linked to telomere elongation, and given the discrepant reports of the role of ATM in human telomere length, the role of ATM in human cells was revisited.
As an independent test of Olaparib on telomere length, telomeres were examined by Southern blot in cultured SL13 cells grown in the presence of Olaparib for an extended time. […] Taken together, the experiments described here indicate that inhibition of ATM blocks telomere elongation while activation of ATM stimulates telomere elongation.
Telomere lengths of SL13 cells treated with 10 μM KU55933 were measured at different population doublings (PD) using genomic Southern blot analysis. […] Boxed numbers indicate the pixel positions corresponding to the blot.
To examine the in vivo chr4 cleavage, genomic DNA of SL13 treated with doxycycline for various time points was extracted using the Puregene™ Core Kit A (Qiagen) and digested with NcoI restriction enzyme (NEB). […] Labeled probe was counted and 10^6 counts/ml (probe) or 10^4 counts/ml (2-log ladder) was denatured at 100° C. for 5 minutes and added to the pre-hybridization solution and hybridized overnight at 42° C. […]

The subject of experiment [2] is SL13 cells. The experiment can be described thus: ADDIT assay (addition of de novo initiated telomeres; modified STELA with PacBio sequencing or Southern blot). The experiment is classed as cell-based, mouse. The conditions noted are these: for de novo telomere addition / telomere elongation in ADDIT assay (in words): PacBio sequencing of STELA products, compared to controls; for percentage of CCS reads with de novo telomere addition (mean and SEM): SL13 cells pretreated prior to doxycycline, 10 μM KU55933, 3 μM Olaparib, 100 nM siATM, multiple experiments. From the text: To critically access the role of ATM, as well as other potential telomere length regulators, an assay was developed that measures telomere repeat addition in cells over 48 hr. CAST/EiJ mouse fibroblast cell line was engineered to (SL13) contain a conditional mTR allele and a modified chromosome 4 (chr4) with an internal 480 bp telomere ‘seed’ sequence followed by a unique I-Sce1 endonuclease cut site (FIG. 5 and see Experimental Procedures). The internal telomere ‘seed’ sequence can be conditionally exposed by I-Sce1 endonuclease cleavage (FIG. 1A) and then be elongated by telomerase in a manner similar to de novo telomere addition shown to occur in yeast (Diede and Gottschling, 1999, Cell 99, 723-733).
To better detect the telomere elongation, the single telomere length analysis (STELA) assay was modified (Baird et al., 2004, Hum Mol Genet 13, 1515-1524), to measure telomere length at the in vivo cut chr4. The linker, ‘telorette’, was ligated to the telomere and PCR amplified the telomere using the ‘teltail’ primer and an internal primer in the hygromycin resistance (HYG) sequence on the engineered chromosome (FIG. 1B). To determine the un-extended cut chromosome length in vitro, a different linker was designed, ‘IScerette’, which anneals to the 4-nt 3′ overhang created by the I-Sce1 endonuclease (FIG. 1B). PCR using the forward primers, F1 or F2, and the teltail generated products of predicted size on a Southern blot (data not shown).
To further verify telomere addition had occurred, the PCR products were sequenced with Pacific Biosciences (PacBio®) sequencing. PacBio® produces long sequence reads that allowed us to determine telomere length. While sequencing errors, predominantly point insertions and deletions, occurred as expected, the telomere repeats were easily recognizable. To assure products were full length, the PacBio® reads were filtered to examine only those that had the unique HYG sequence followed by the seed telomere repeat sequence and also had the ‘teltail’ primer sequence (FIG. 6). […] The I-Sce1 site is shown boxed (FIG. 1C). Three regions of variant telomere repeats were noted, evident as darker stripes in the aligned reads, that were present in the original SL13 clone, and served as useful sequence reference points (FIG. 1C). If there were degradation past these variants and then new TTAGGG (SEQ ID NO: 100) repeat synthesis in vivo, these landmarks would be removed.
The sequence length distribution in the ADDIT assay represents telomere elongation, incomplete telomere replication and in vivo end resection (as well as PacBio® sequencing errors).
Cell lines were grown in DMEM (Gibco) supplemented with 1% Penicillin/Streptomycin/Glutamine (PSG) and 10% heat inactivated FBS (Invitrogen). SL13 cells were grown in DMEM (Gibco) supplemented with 1% PSG and 10% Tet system approved FBS (Clontech, #631107). Cells were treated with ATM inhibitor KU55933 (R&D Systems, #3544), ATR inhibitor VE821 (Selleckchem, #S8007) or PARP1 inhibitor Olaparib (Selleckchem, #1060) at indicated concentrations or DMSO as a control. For the ADDIT assay, SL13 cells were treated with final concentration 2 μg/ml of doxycycline for typically 48 hr or as indicated.
The original STELA protocol used for human cells (Baird et al., 2004, Hum Mol Genet 13, 1515-1524) was modified to measure telomere lengths on the cut end of chr4 in SL13 cells. Briefly, genomic DNA was extracted using Puregene Core Kit A™ (Qiagen). 4 μg of genomic DNA was digested with Sph1 (NEB) and later diluted to 10 ng/μl in water. For the in vitro IScerette sample, genomic DNA was digested with SphI and I-SceI (NEB) prior to ligation. The ligation was carried out at 35° C. for at least 12 hr in a volume of 10 μl containing 10 ng of digested genomic DNA, 0.9 μM of telorette linkers or IScerette linker and 0.5 U of T4 DNA ligase (NEB) in 1×T4 ligation buffer. […]

“And” between values parts separate entries of the source, which are not always exact repeats. Equal values may be shown once. “Also recorded” adds a separate entry of the source.

`O=C(c1cc(Cc2n[nH]c(=O)c3ccccc23)ccc1F)N1CCN(C(=O)C2CC2)CC1` [Olaparib]: the “telomere length by Southern blot” value in experiment [1] (SL13 cells grown in presence of Olaparib for 55 population doublings) was “Telomere length gradually increased; also recorded: gradually increased after 25 PDs”. In experiment [2], the “de novo telomere addition / telomere elongation in ADDIT assay (in words)” value is “small increase in telomere elongation”; the “percentage of CCS reads with de novo telomere addition (mean and SEM)” value is 26% and 26.1±1.19%.
As for `O=c1cc(-c2cccc3c2Sc2ccccc2S3)oc(N2CCOCC2)c1` [KU55933], the bulk telomere length entry in experiment [1] (SL13 cells grown in 10 μM KU55933, different population doublings) is reported as “telomere shortening also occurred, although at a somewhat slower rate”. In experiment [2], the “de novo telomere addition / telomere elongation in ADDIT assay (in words)” value is “significantly fewer telomere elongation products”; the “percentage of CCS reads with de novo telomere addition (mean and SEM)” value turned out to be 12.45±1.16%.

For the origin of these results see US20180110777A1, “METHOD FOR REGULATION OF TELOMERE LENGTH” (The Johns Hopkins University, priority 2015, published 2018).
